ChEMBL document CHEMBL1201862, “PubChem BioAssay data set” (2004)
The source made the active and inactive calls.

Columns and labels:
[1] = molecular target: G-protein coupled receptor 55 (Homo sapiens, UniProt Q9Y2T6); assay: GPR55 antagonists blocking LPI-driven arrestin recruitment, primary screen, imaging, U2OS, beta-arrestin-GFP, LPI agonist (AID 2013); assay type: functional;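 further: antagonist potency measured as reduced agonist-driven arrestin aggregation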
[2] = Luminescence Cell-Based Dose Response HTS to Identify Inhibitors of 5'UTR Stem-Loop Driven Prion Protein mRNA Translation in H4 Neuroglioblastoma Cells. [Related pubchem assays: 1827 (Project Summary), 1813 (Primary HTS)]; assay type: functional
[3] = Intein inhibitors as potential Tuberculosis drugs, a cytotoxicity screen. [Related pubchem assays (depositor defined):AID2221, AID2223, AID434968, AID435010, AID449749, AID449750, AID489010]; assay type: functional
[4] = molecular target: Sphingosine 1-phosphate receptor 1 (Homo sapiens, UniProt P21453); assay type: functional;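 further: Tango beta-arrestin reporter U2OS cells stimulated with S1P near its EC80; inhibitor potency meaning antagonism of receptor activation by the natural agonist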
Sequence of Sphingosine 1-phosphate receptor 1 (P21453 whole entry, the tested form may be a part): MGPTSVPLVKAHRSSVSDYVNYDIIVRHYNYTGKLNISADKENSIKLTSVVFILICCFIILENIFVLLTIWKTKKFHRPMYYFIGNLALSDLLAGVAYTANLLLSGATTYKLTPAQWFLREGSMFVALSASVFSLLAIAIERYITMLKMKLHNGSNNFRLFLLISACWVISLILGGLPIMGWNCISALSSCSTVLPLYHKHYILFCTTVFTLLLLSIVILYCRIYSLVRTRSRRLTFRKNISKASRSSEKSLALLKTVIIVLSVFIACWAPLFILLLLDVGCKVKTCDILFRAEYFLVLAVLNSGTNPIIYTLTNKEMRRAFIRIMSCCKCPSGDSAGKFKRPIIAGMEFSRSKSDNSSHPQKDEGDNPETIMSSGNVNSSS

[5] = molecular target: T1, RNA-binding protein pos-1 (Caenorhabditis elegans, UniProt G5EF15); assay: inhibitors of POS-1/mex-3 RNA binding, dose response, biochemical, fluorescence polarization (AID 1964);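 further: purified POS-1 fused to maltose binding protein made in E. coli; potency of compounds blocking POS-1 binding to fluorescent RNA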
T1 sequence (G5EF15 whole entry): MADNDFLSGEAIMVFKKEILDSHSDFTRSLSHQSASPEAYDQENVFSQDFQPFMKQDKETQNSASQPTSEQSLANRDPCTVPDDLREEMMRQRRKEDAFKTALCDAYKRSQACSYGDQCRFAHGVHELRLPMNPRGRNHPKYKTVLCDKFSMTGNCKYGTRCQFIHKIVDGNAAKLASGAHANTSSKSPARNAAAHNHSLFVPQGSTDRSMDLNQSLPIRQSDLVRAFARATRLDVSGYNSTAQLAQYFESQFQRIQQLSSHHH

[6] = molecular target: Heat shock protein HSP 90-alpha (Homo sapiens, UniProt P07900); assay type: functional, organism-based
[7] = molecular target: T2, Sentrin-specific protease 6 (Homo sapiens, UniProt Q9GZR1); assay: SAR Analysis of small molecule inhibitors of Sentrin-specific protease 6 (SENP6) using a Luminescent assay. [Related pubchem assays (depositor defined):AID2582, AID2599]; assay type: functional
T2 sequence (Q9GZR1 whole entry): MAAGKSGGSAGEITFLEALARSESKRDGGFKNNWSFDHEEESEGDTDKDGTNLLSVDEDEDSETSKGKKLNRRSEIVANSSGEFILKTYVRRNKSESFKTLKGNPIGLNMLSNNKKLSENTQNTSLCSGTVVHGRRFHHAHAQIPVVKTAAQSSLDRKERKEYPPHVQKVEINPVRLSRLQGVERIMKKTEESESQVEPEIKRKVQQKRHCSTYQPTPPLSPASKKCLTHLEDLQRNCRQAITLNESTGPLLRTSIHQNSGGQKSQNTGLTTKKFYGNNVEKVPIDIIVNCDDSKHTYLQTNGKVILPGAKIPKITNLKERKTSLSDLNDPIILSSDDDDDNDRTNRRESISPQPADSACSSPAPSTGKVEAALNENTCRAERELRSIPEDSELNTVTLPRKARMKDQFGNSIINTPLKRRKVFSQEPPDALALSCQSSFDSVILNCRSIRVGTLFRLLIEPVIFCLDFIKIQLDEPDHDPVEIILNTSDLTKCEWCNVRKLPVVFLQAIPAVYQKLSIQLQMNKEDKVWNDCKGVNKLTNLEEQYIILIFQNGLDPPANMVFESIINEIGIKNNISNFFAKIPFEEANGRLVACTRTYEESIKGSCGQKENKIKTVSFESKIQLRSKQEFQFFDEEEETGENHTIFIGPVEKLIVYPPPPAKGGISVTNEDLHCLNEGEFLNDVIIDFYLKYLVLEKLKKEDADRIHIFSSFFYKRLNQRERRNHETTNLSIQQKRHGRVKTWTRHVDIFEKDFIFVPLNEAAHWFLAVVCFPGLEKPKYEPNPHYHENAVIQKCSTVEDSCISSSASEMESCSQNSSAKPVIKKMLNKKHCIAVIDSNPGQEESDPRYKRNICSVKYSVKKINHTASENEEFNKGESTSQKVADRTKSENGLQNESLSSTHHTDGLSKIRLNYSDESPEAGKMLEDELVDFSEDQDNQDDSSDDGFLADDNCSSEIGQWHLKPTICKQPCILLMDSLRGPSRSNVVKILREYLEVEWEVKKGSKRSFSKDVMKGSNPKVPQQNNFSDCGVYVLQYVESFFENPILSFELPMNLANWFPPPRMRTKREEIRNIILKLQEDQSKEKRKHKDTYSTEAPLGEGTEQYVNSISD

[8] = molecular target: T3, Sentrin-specific protease 8 (Homo sapiens, UniProt Q96LD8); assay: SENP8 protease inhibitors, SAR follow-up, biochemical, luminescence (AID 504501); assay type: functional
T3 sequence (Q96LD8 whole entry): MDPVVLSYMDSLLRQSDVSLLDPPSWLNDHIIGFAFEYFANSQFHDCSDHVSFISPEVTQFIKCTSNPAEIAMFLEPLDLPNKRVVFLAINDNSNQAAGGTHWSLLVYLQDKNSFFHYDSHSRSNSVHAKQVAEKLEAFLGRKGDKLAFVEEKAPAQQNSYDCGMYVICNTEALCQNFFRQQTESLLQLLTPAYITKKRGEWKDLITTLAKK

Caspase-3 = molecular target: T4, Caspase-3 (Homo sapiens, UniProt P42574); assay: SAR Analysis of small molecule inhibitors of Sentrin-specific proteases (SENPs) using a Caspase-3 Selectivity assay. [Related pubchem assays (depositor defined):AID2540, AID2599, AID434973, AID489001]; assay type: functional
T4 sequence (P42574 whole entry): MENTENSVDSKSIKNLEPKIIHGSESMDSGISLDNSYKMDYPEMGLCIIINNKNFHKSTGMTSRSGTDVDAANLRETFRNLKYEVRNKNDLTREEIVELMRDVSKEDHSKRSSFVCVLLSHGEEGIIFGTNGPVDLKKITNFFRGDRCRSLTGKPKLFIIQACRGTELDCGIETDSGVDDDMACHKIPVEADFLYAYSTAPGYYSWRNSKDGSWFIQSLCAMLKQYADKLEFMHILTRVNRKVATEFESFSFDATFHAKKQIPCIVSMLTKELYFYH

HEK293 [9] = assay: SAR Analysis of small molecule inhibitors of T-cell specific antigen receptor-induced NF-kB activation in a HEK-293T cell line using a luminescence assay - Set 2. [Related pubchem assays (depositor defined):AID435003, AID435012, AID489026]; assay type: functional, cell-based; settings: Homo sapiens
[10] = HepG2 cell cytotoxicity, dose response, cytotoxicity control for Shn3 inhibitor project, CellTiter-Glo, cherry-picked (AID 624134); assay type: functional, cell-based
HEK293 [11] = assay: cytotoxicity in HEK293T NF-kB-Luc cells, SAR follow-up, cytotoxicity control for NF-kB activator project, cell-based, resazurin fluorescence (AID 493251); assay type: functional; settings: Homo sapiens
[12] = NIH-3T3 fibroblast cytotoxicity, dose response, cytotoxicity control, cell-based, fluorescence, Alamar Blue, secondary assay (AID 2327); assay type: functional;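 further: NIH-3T3 mouse fibroblasts cultured with fluconazole at 8 µg/mL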
BJ = assay: cytotoxicity toward Ras-transformed BJeLR fibroblasts, dose response, cell-based, alamar blue fluorescence, cherrypicked samples (AID 2631); assay type: functional; settings: Homo sapiens;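 further: confirmatory dose-response assay in RAS-dependent BJ fibroblasts engineered with TERT, LT and ST, with cytotoxicity read by fluorescence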
[13] = HepG2 cell cytotoxicity, dose response, cytotoxicity control for non-replicating M. tuberculosis project (AID 489018); assay type: functional; settings: Mycobacterium tuberculosis

Sequence of G-protein coupled receptor 55 (Q9Y2T6 whole entry): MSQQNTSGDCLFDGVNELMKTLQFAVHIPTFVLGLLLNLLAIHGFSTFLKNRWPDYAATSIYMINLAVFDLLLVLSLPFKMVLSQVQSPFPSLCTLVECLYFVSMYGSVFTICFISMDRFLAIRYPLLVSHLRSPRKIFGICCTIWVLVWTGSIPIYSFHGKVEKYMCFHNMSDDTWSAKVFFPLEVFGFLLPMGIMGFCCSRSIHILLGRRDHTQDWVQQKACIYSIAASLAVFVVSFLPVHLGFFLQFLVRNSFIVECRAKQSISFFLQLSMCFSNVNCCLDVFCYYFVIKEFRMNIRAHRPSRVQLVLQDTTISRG

SMILES: Cn1nc(-c2ccc(Cl)cc2)nc2c(=O)n(C)c(=O)nc1-2
- IC50 [1]: 7.35 µM (active)
- EC50 [2]: > 120 µM (not active)
- CC50 [3]: > 40 µM (active)
- IC50 [4]: 2.34 µM (active)
- EC50 [5]: 17.6 µM (active)

SMILES: SC1=Nc2ccccc2C1
- AC50 [6]: 3.88 µM (active)

SMILES: CCCCNc1cc(NC(C)=O)cc2cc(OC)c(OC)cc12
- IC50 [7]: 82 µM (active)
- IC50 [8]: > 99 µM (inactive)
- IC50 (Caspase-3): > 99 µM (inactive)

SMILES: COc1ccc(C(NC(=O)C(C)C)c2ccc3cccnc3c2O)cc1 (stereo not given)
- IC50 (HEK293 [9]): 3.15 µM (active)
- AC50 [10]: 1.27 µM (active)
- IC50 (HEK293 [11]): 41.3 µM (inactive)
- EC50 [12]: 40.1 µM (active)

SMILES: O=C(Cc1ccc([N+](=O)[O-])cc1)N/N=C/c1ccc([N+](=O)[O-])o1
- EC50 (BJ): 7.85 µM (active)
- CC50 [13]: 7.53 µM (active)
